B1: RefmAb33: antibody specific for RSV, used as isotype control, shares the same Fc region as MOR00208 (SEQ ID NO: 8, 9) (antibody)
heavy: QVTLRESGPALVKPTQTLTLTCTFSGFSLSTAGMSVGWIRQPPGKALEWLADIWWDDKKHYNPSLKDRLTISKDTSKNQVVLKVTNMDPADTATYYCARDMIFNFYFDVWGQGTTVTVSSASTKGPSVFPLAPSSKSTSGGTAALGCLVKDYFPEPVTVSWNSGALTSGVHTFPAVLQSSGLYSLSSVVTVPSSSLGTQTYICNVNHKPSNTKVDKKVEPKSCDKTHTCPPCPAPELLGGPDVFLFPPKPKDTLMISRTPEVTCVVVDVSHEDPEVQFNWYVDGVEVHNAKTKPREEQFNSTFRVVSVLTVVHQDWLNGKEYKCKVSNKALPAPEEKTISKTKGQPREPQVYTLPPSREEMTKNQVSLTCLVKGFYPSDIAVEWESNGQPENNYKTTPPMLDSDGSFFLYSKLTVDKSRWQQGNVFSCSVMHEALHNHYTQKSLSLSPGK
light: DIQMTQSPSTLSASVGDRVTITCSASSRVGYMHWYQQKPGKAPKLLIYDTSKLASGVPSRFSGSGSGTEFTLTISSLQPDDFATYYCFQGSGYPFTFGGGTKVEIKRTVAAPSVFIFPPSDEQLKSGTASVVCLLNNFYPREAKVQWKVDNALQSGNSQESVTEQDSKDSTYSLSSTLTLSKADYEKHKVYACEVTHQGLSSPVTKSFNRGEC
modifications: Heavy chain RefMab33; Light chain RefMab33

Tested on: MEC-1 cells
Experiment: Cytotoxicity/ADCC cell killing of MEC-1 cells with PBMCs (FACS, propidium iodide)
Assay type: cell-based, human
Conditions: for normalized specific killing: combination set to 1, Bendamustine 100 μg/ml, MOR00208 6.6 pM; for % dead cells: MOR00208 6.6 pm, BEN 100 μg/ml (48 h pre-incubation), E:T 30:1, 4 h, control RefMab33
Excerpt: MEC-1 cells: chronic B-cell leukemia cell line DSMZ #ACC497; Cell Medium: Iscove's Modified Dulbecco's Medium (IMDM) with GlutaMAX™, Invitrogen, Cat No.: 31980-048, 20% FCS; PBMCs: RPMI1640, with stabile Glutamine, PAN Biotech GmbH, Cat No.: P04-13500 supplemented with 10% FCS; Biocoll: Biochrome AG CAT No.: L6115 LOT No.: 1050T; Bendamustine: Mundipharma LOT No.: 88018; FCS: PAN CAT No.: 3302-P282403 LOT No.: P282403; and RefmAb33 (anti-RSV) with same Fc region as MOR00208.
The cytotoxicity of MOR00208 and bendamustine alone and in combination was tested in MEC-1 cells. BEN is an alkylating agent, therefore, functions via direct cytoxicity in MEC-1 cells. MOR00208 targets CD19 and additionally functions via ADCC in killing MEC-1 cells. For the following groups MEC-1 cell killing was measured: BEN at 100 μg/ml; MOR00208 at 6.6 pm and the combination of MOR00208 at 6.6 pm and BEN at 100 μg/ml. […] The following were used as controls: RefmAb33, or PBMCs alone. In both the BEN group and MOR00208+BEN combination group, MEC-1 cells were pre-incubated with BEN 48 hours prior to the ADCC assay measurements. The MEC-1 cells were stained using 1 mg/ml Calcein AM then counted and adjusted to 2×10^5/ml. The PBMCs were counted and adjusted to 6×10^6/ml. The cell killing assays were done as follows: using 96 well plates, a 100 μl cell suspension of MEC-1 cells was added per well, then 100 μl cell suspension of PBMCs was added to each well resulting in an E:T ratio of 30:1. The antibodies were diluted to 1 μg/ml in medium. Cells were centrifuged and re-suspended. To the target:effector cell-pellet, 100 μl antibody solution or according control solution was added. The mixture was incubated for 4 h in CO2-incubator at 37° C. The cell killing measurements were taken as follows: the incubated cell solution (˜100 μl) was transferred into FACS tubes and 200 μl FACS buffer (DPBS+3% FCS) and 0.5 μl PI stock solution was added to each tube. FACS-Calibur was used. Dead MEC-1 cells were stained with propidium iodide.
The values represent % dead cells. Each experiment represents PBMCs from different donors. The controls used for each experiment was RefMab33.
The values shown in Table 2 are calculated as follows: 1) from the raw data (% dead cells) shown in Table 1, the background (controls) were subtracted, resulting in the specific killing for each treatment group; then 2) the specific killing values were normalized by setting the combination of MOR00208+BEN to 1. The averages of Table 2 are depicted in FIG. 5.
[…] (CI) calculations were completed in order to determine synergy of the combination of the exemplified anti-CD19 antibody and bendamustine as compared to MOR00208 and BEN alone. Such calculations are described in Ting-Chao Chou, Theoretical Basis, Experimental Design, and Computerized Simulation of Synergism and Antagonism in Drug Combination Studies, Pharmacol Rev 58:621-681 (2006), which is incorporated by reference in its entirety and Chou T C, Talalay P, Quantitative analysis of dose-effect relationships: the combined effects of multiple drugs or enzyme inhibitors. Adv Enzyme Regul 22:27-55 (1984), which is incorporated by reference in its entirety. The methods of Chou-Talalay are carried out using the CI-isobol method.
The median-effect equation models of the effect of an inhibitor (such as a drug) as Fa/Fu=(D/D50)^m, where D is the dose, Fa and Fu is the fraction of the system affected and unaffected by the dose D (Fa+Fu=1); D50 is the dose producing the median effect (e.g. IC50, ED50, LD50). The constant m determines the shape of the dose-effect curve. We used Excel Fit software to carry out a linear regression calculation to estimate the parameters m and D50.
The effects of the combination on MEC-1 cells is measured % cell death as described above.

| Molecule | normalized specific killing (Average of experiments 1-3) | % dead cells (Experiment 1 (PBMC donor)) | normalized specific killing (Experiment 1, background subtracted) | % dead cells (Experiment 2 (PBMC donor)) | normalized specific killing (Experiment 2, background subtracted) | % dead cells (Experiment 3 (PBMC donor)) | normalized specific killing (Experiment 3, background subtracted) | EC50 (concentration chosen as near or at the EC50, read-out: EC50 (MEC-1 cell killing)) | Bonferroni's Multiple Comparison Test Mean Diff. (normalized specific killing, monotherapy vs. BEN + MOR00208 combination) |
| --- | --- | --- | --- | --- | --- | --- | --- | --- | --- |
| MOR00208: anti-CD19 antibody; variable domains shown in FIG. 3, heavy and light chain Fc regions in FIG. 4 | 0.6 | 73.6% | 0.70 | 41.5% | 0.50 | 57.2% | 0.50 | ~6.6 pM | −0.4321 |
| B1 |  | 25.2% |  | 18% |  | 30.9% |  |  |  |

Source: patent publication US20240366756A1, “COMBINATIONS AND USES THEREOF” (Incyte Corporation, priority 2011, published 2024)
